Reference: patent US6420388B1, “Osanetant in the treatment of depression and depressive disorders” (Sanofi-Synthelabo, priority 1999, dated 2002)

Tested on: major depressive disorders
Experiment: Effect of osanetant on major depressive disorders in patients
Type: in vivo, human
Details: patients 18 to 65 years of age with major depressive disorders; osanetant 200 mg/day for about 6 weeks
Procedure: The effect of osanetant on major depressive disorders has been investigated in patients of between 18 and 65 years of age. The patients were given osanetant (200 mg/day) for a period of about 6 weeks.

CC(=O)N(C)C1(c2ccccc2)CCN(CCC[C@]2(c3ccc(Cl)c(Cl)c3)CCCN(C(=O)c3ccccc3)C2)CC1 [osanetant, (R)-(+)-N-[(3-(1-benzoyl-3-(3,4-dichlorophenyl)piperidin-3-yl)propyl)-4-phenylpiperidin-4-yl]-N-methyl acetamide]
scores on the Hamilton scale (improvement in the depressive syndrome): significant reduction
